In US4264596A, “Maytansinoids, pharmaceutical compositions thereof and method of use thereof” (Takeda Chemical Industries, Ltd., priority 1980, dated 1981):
In brackets after ≈: the same amount, converted by molar mass.

How the values were obtained:
Tetrahymena pyriformis W = experiment: Antiprotozoal activity, growth inhibition by serial dilution method; type: cell-based; conditions: 28° C., 44 to 48 hours, pH 7.0, serial dilution method, read-out: Antiprotozoal activity, MIC (minimal inhibitory concentration)
Procedure: Antiprotozoal activity of compound (I) was assayed with Tetrahymena pyriformis W as the test organism and a medium composed of 20 g tryptose-peptone (Difco Co.), 1 g yeast extract, 2 g glucose, 1000 ml distilled water, 10 ml 1 M phosphate buffer (pH 7.0) as the assay medium. The microorganism was incubated at 28° C. for 44 to 48 hours and the growth inhibitory activity of compound (I) was assayed by the serial dilution method.

melanoma B-16 = experiment: Antitumor therapeutic test in mice (life span prolongation), melanoma B-16 intraperitoneally transplanted, NCI-protocol 1,300; type: in vivo, mouse; conditions: i.p. once daily for 9 consecutive days
Procedure: Therapeutic tests were carried out in mice according to NCI-protocol 1,300, Cancer Chemother, Reports, Part 3, 1972 , Vol.3, No.2, in which melanoma B-16 tumor cells had been intraperitoneally transplanted, compound (I) being administered intraperitoneally once daily for 9 consecutive days.

COC1C=CC=C(C)Cc2cc(OS(=O)(=O)c3ccc(N)cc3)c(Cl)c(c2)N(C)C(=O)CC(OC(=O)C(C)C)C2(C)OC2C(C)C2CC1(O)NC(=O)O2 (stereo not drawn) [PDM-3-C20-p-aminobenzenesulfonate]
MIC (Tetrahymena pyriformis W): 2 to 4 µg/mL (≈ 2.58 to 5.15 µM)

COC1C=CC=C(C)Cc2cc(OS(C)(=O)=O)c(Cl)c(c2)N(C)C(=O)CC(OC(=O)C(C)C)C2(C)OC2C(C)C2CC1(O)NC(=O)O2 (stereo not drawn) [PDM-3-C20-methenesulfonate, PDM-3-C20-methanesulfonate]
Antitumor activities B-16 (T/C %), life span prolongation (melanoma B-16; 6.2 μg/kg): 154%
Antitumor activities B-16 (T/C %), life span prolongation (melanoma B-16; 12.5 μg/kg): 195%
Antitumor activities B-16 (T/C %), life span prolongation (melanoma B-16; 25 μg/kg): 178%
Antitumor activities B-16 (T/C %), life span prolongation (melanoma B-16; 50 μg/kg): 189%
Antitumor activities B-16 (T/C %), life span prolongation (melanoma B-16; 100 μg/kg): 218%
Antitumor activities B-16 (T/C %), life span prolongation (melanoma B-16; 200 μg/kg): 246%

COC1C=CC=C(C)Cc2cc(OS(=O)(=O)c3ccc(C)cc3)c(Cl)c(c2)N(C)C(=O)CC(OC(=O)C(C)C)C2(C)OC2C(C)C2CC1(O)NC(=O)O2 (stereo not drawn) [PDM-3-C20-p-toluenesulfonate]
MIC (Tetrahymena pyriformis W): 1 to 2 µg/mL (≈ 1.29 to 2.58 µM)

COC1C=CC=C(C)Cc2cc(OS(=O)(=O)c3ccc(Cl)cc3)c(Cl)c(c2)N(C)C(=O)CC(OC(=O)C(C)C)C2(C)OC2C(C)C2CC1(O)NC(=O)O2 (stereo not drawn) [PDM-3-C20-p-chlorobenzenesulfonate]
MIC (Tetrahymena pyriformis W): 2 µg/mL (≈ 2.51 µM)
